Where two headings read alike, the source gives them in different places.

One data set concerns MM1.S cells. As to the kind of experiment: Antiproliferative activity in MM1.S cells (sensitive for BRD4 inhibition). In kind it is cell-based. The note with it: Homo sapiens; for EC50: MM1.S cells (sensitive for BRD4 inhibition); for GI50 / IC50: MM1.S; for GI50: Table 3, read-out: GI50 (MM1S). As to the method: Cellular activity of promising compounds is assessed using MM.1S and MV4-11 AML cells using c-Myc levels as biomarker (6-12 hr treatment) and antiproliferative activity (48-72 hr treatment) as described (Ciceri et al., Dual kinase-bromodomain inhibitors for rationally designed polypharmacology. Nat Chem Biol 2014).

For another data set, the system named is UKE1 cells. Briefly: Growth inhibition of UKE1 cells. Type of data set: cell-based.
Data set [1] has as its target T1, BRD4 (Homo sapiens, UniProt O60885). As to the kind of experiment: Differential Scanning Fluorimetry (DSF), increased stability of BRD4 upon ligand binding. The note with it: for ΔTm at 4 µM: 100 μM protein, 4 μM compound and 2% DMSO; for BRD4 DSF (ΔTm): Table 3. As to the method:
DSF=Differential Scanning Fluorimetry; provides a measure of the increased stability of BRD4 upon ligand binding The DSF experiment was run at 100 μM protein, 4 μM compound and 2% DMSO.
A general note: In DSF a fluorescence change marks the thermal transition of the protein.

Another data set concerns c-Myc. The note with it: MM.1S cells; background, literature; cited from earlier work.
The target of data set [2] is T1, BRD4. As to the kind of experiment: BRD4 inhibition (IC50). Type of data set: binding. More on the design: BRD4-1.
The next data set has as its target JAK2 (Homo sapiens, UniProt O60674). Briefly: JAK2 inhibition (IC50). Type of data set: biochemical.
A further data set is described as follows: Mouse microsome. In kind it is in vitro ADME. The note with it: Table 1.
For the next data set, the system named is MV4-11 AML cells. The note with it: background, literature; read-out: IC50, proliferation of MV4-11 AML cells; cited from earlier work.
The mark [3] stands for this setting: Table 2, read-out: GI50 (UKE1 cells).
[4] abbreviates: Table 1, read-out: GI50 (UKE1 cells).
[5] abbreviates: Table 1, estimated, read-out: Estimated BRD4-1 IC50 (BRD4).

Sequence of JAK2 (O60674 whole entry): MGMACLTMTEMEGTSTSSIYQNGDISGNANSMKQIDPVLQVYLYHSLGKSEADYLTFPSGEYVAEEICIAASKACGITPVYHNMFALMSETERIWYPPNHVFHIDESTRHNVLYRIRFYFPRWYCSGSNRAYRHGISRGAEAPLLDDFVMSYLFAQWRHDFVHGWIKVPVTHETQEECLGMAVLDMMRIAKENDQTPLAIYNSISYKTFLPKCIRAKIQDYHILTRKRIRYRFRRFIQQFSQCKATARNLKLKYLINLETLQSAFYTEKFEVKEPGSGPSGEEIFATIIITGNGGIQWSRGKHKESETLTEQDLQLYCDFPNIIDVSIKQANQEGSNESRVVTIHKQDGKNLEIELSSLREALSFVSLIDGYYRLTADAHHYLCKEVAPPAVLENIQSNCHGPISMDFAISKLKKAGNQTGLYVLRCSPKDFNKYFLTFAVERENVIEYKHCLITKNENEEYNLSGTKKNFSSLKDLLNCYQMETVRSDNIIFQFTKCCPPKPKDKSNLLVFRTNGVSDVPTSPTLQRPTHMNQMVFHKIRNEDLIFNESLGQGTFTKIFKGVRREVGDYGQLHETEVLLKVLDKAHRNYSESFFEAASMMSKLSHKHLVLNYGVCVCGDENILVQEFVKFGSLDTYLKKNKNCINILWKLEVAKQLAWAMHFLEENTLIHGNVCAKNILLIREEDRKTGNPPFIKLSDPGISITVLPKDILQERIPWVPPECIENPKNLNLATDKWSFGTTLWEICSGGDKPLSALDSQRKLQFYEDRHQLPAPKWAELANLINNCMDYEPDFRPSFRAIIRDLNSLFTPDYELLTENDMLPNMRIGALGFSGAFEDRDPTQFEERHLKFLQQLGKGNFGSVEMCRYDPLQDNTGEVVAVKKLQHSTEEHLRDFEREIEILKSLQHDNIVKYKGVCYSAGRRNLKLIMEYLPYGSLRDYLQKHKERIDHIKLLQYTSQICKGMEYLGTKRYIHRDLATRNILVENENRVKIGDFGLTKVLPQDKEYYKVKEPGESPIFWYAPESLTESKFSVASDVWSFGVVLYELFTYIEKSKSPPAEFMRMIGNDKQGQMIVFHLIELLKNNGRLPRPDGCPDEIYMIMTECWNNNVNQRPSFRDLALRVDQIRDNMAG

A word on the EC50: it is the concentration needed to bring the measured effect to its halfway point. A low value points to a more potent agent. One may read the GI50 as the concentration giving 50% growth inhibition. What is called ΔTm is the change in melting temperature against a reference sample. `Cc1cnc(Nc2ccc(N3CCN(C)CC3)c(F)c2)cc1Nc1ccc(Cl)c(NS(=O)(=O)C(C)(C)C)c1` came in with an EC50 with MM1.S cells (Table 2) of 3120 nM. The GI50 in the data set with UKE1 cells (setting [3]) stood at 4500 nM. Moreover, the ΔTm at 4 µM on BRD4 [1] (Table 2) was 6.9 °C.

Compound `Cc1cnc(Nc2cc(F)c(N3CCN(C)CC3)c(F)c2)cc1Nc1ccc(Cl)c(NS(=O)(=O)C(C)(C)C)c1` displayed an EC50 in the data set on MM1.S cells (Table 2) of 2830 nM. Further, the GI50 with UKE1 cells (setting [3]) worked out at 5700 nM. Moreover, the ΔTm at 4 µM on BRD4 [1] (Table 2) is 6.6 °C.

As for `CC[C@@H]1C(=O)N(C)c2cnc(Nc3ccc(C(=O)NC4CCN(C)CC4)cc3OC)nc2N1C1CCCC1` [BI2536], the “downregulation of c-Myc” value in the data set with c-Myc was “strong downregulation”.

`Cc1cnc(Nc2ccc(N3CCN(C)CC3)c(F)c2)nc1Nc1cccc(CS(=O)(=O)C(C)(C)C)c1` [SR3-159, N^4-(3-((tert-Butylsulfonyl)methyl)phenyl)-N^2-(3-fluoro-4-(4-methylpiperazin-1-yl)phenyl)-5-methylpyrimidine-2,4-diamine]: the GI50 was found to be 710 nM in the data set on MM1.S cells; 440 nM with UKE1 cells (setting [4]); 440 nM with UKE1 cells (Table 3, read-out: GI50 (UKE1)). The EC50 in the data set on MM1.S cells (Table 1) was 710 nM. In addition, on BRD4 [1] (Table 1), the ΔTm at 4 µM came out at 8.4 °C. The “BRD4 DSF (ΔTm)” value on BRD4 [1] worked out at 8.4 °C. The IC50 at BRD4 [2] (setting [5]) was 5610 nM; on BRD4 [2] (Table 3, read-out: BRD4 (IC50)), 5600 nM; at JAK2 (Table 1, read-out: IC50 (JAK2)) it was 9 nM; at JAK2 (Table 3, read-out: JAK2 (IC50)) it was 8 nM.

As for `Cc1cnc(Nc2ccc(C(=O)NC3CCN(C)CC3)c(F)c2)nc1Nc1cccc(CS(=O)(=O)C(C)(C)C)c1` [SR3-162, 4-((4-((3-((tert-Butylsulfonyl)methyl)phenyl)amino)-5-methylpyrimidin-2-yl)amino)-2-fluoro-N-(1-methylpiperidin-4-yl)benzamide], the IC50 with MM1.S cells (Table 1) turned out to be 130 nM; at JAK2 (Table 3, read-out: JAK2 (IC50)), 2.2 nM. The GI50 in the data set on MM1.S cells was 130 nM. Besides, the ΔTm at 4 µM at BRD4 [1] (Table 1) worked out at 6.9 °C. Also, on BRD4 [1], the “BRD4 DSF (ΔTm)” value turned out to be 6.9 °C.

On to `Cc1cnc(Nc2ccc(C3CCN(C)CC3)c(F)c2)nc1Nc1cccc(CS(=O)(=O)C(C)(C)C)c1` [SR3-167, N^4-(3-((tert-Butylsulfonyl)methyl)phenyl)-N^2-(3-fluoro-4-(1-methylpiperidin-4-yl)phenyl)-5-methylpyrimidine-2,4-diamine], for which the IC50 in the data set with MM1.S cells (Table 1) was 140 nM; on BRD4 [2] (setting [5]), 704 nM; on BRD4 [2] (Table 3, read-out: BRD4 (IC50)), 700 nM; on JAK2 (Table 1, unit given as nm, read-out: IC50 (JAK2)), 0.87 nM; at JAK2 (Table 3, read-out: JAK2 (IC50)) it was 1 nM. Besides, the GI50 amounted to 140 nM in the data set on MM1.S cells; 210 nM in the data set with UKE1 cells (setting [4]); 210 nM in the data set with UKE1 cells (Table 3, read-out: GI50 (UKE1)). Also, on BRD4 [1] (Table 1), the ΔTm at 4 µM was 9.2 °C. For the same compound, the “BRD4 DSF (ΔTm)” value at BRD4 [1] worked out at 9.2 °C. Moreover, the Mouse microsome in “Mouse microsome” is given as 28%.

As for `Cc1cnc(Nc2ccc(C3CCN(C)CC3)c(F)c2)nc1Nc1ccc(Cl)c(CS(=O)(=O)C(C)(C)C)c1` [SR3-169, N^4-(3-((tert-Butylsulfonyl)methyl)-4-chlorophenyl)-N^2-(3-fluoro-4-(1-methylpiperidin-4-yl)phenyl)-5-methylpyrimidine-2,4-diamine], the IC50 was found to be 320 nM in the data set on MM1.S cells (Table 1); 700 nM at BRD4 [2] (Table 3, read-out: BRD4 (IC50)); 4.2 nM at JAK2 (Table 3, read-out: JAK2 (IC50)). Moreover, the GI50 in the data set with MM1.S cells came out at 320 nM; in the data set with UKE1 cells (setting [4]) it was 400 nM; in the data set on UKE1 cells (Table 3, read-out: GI50 (UKE1)), 400 nM. Also, the ΔTm at 4 µM at BRD4 [1] (Table 1) turned out to be 9.8 °C. In addition, at BRD4 [1], the “BRD4 DSF (ΔTm)” value came to 9.8 °C. The Mouse microsome in “Mouse microsome” came to 22%.

Regarding `Cc1cnc(Nc2ccc(C3CCN(C)CC3)c(F)c2)nc1Nc1ccc2c(c1)C(S(=O)(=O)C(C)(C)C)CC2` (stereo not shown) [SR5-156, N^4-(3-(tert-Butylsulfonyl)-2,3-dihydro-1H-inden-5-yl)-N^2-(3-fluoro-4-(1-methylpiperidin-4-yl)phenyl)-5-methylpyrimidine-2,4-diamine], the GI50 in the data set on MM1.S cells was 850 nM; in the data set on UKE1 cells (Table 3, read-out: GI50 (UKE1)) it was 1440 nM. The “BRD4 DSF (ΔTm)” value on BRD4 [1] is 8.7 °C.

On to `Cc1cnc(Nc2cc(F)c(C3CCN(C)CC3)c(F)c2)nc1Nc1ccc2c(c1)C(S(=O)(=O)C(C)(C)C)CC2` (stereo not shown) [SR5-157, N^4-(3-(tert-Butylsulfonyl)-2,3-dihydro-1H-inden-5-yl)-N^2-(3,5-difluoro-4-(1-methylpiperidin-4-yl)phenyl)-5-methylpyrimidine-2,4-diamine], for which the GI50 with MM1.S cells is 700 nM; in the data set on UKE1 cells (Table 3, read-out: GI50 (UKE1)), 1500 nM.

With `Cc1cnc(Nc2cc(F)c(C3CCN(C)CC3)cn2)nc1Nc1ccc2c(c1)C(S(=O)(=O)C(C)(C)C)CC2` (stereo not shown) [SR5-158, N^4-(3-(tert-Butylsulfonyl)-2,3-dihydro-1H-inden-5-yl)-N^2-(4-fluoro-5-(1-methylpiperidin-4-yl)pyridin-2-yl)-5-methylpyrimidine-2,4-diamine], the GI50 came to 2300 nM in the data set with MM1.S cells and 3640 nM in the data set on UKE1 cells (Table 3, read-out: GI50 (UKE1)). Besides, the “BRD4 DSF (ΔTm)” value at BRD4 [1] turned out to be 7.0 °C.

Turning to `Cc1cnc(Nc2ccc(C3CCN(C)CC3)cc2)cc1Nc1cccc(CS(=O)(=O)C(C)(C)C)c1` [SY3-032, N^4-(3-((tert-Butylsulfonyl)methyl)phenyl)-5-methyl-N^2-(4-(1-methylpiperidin-4-yl)phenyl)pyridine-2,4-diamine], the “BRD4 DSF (ΔTm)” value at BRD4 [1] worked out at 2.5 °C.

In the case of `Cc1cnc(Nc2ccc(C3CCN(C)CC3)c(F)c2)cc1Nc1cccc(CS(=O)(=O)C(C)(C)C)c1` [SY3-036, N^4-(3-((tert-Butylsulfonyl)methyl)phenyl)-N^2-(3-fluoro-4-(1-methylpiperidin-4-yl)phenyl)-5-methylpyridine-2,4-diamine], the “BRD4 DSF (ΔTm)” value at BRD4 [1] stood at 2.9 °C.

Consider `Cc1cnc(Nc2ccc(N3CCN(C)CC3)cc2)nc1Nc1cccc(S(=O)(=O)NC(C)(C)C)c1` [TG101209], for which the “downregulation of c-Myc” value with c-Myc was “strong downregulation”.

Regarding `Cc1cnc(Nc2ccc(OCCN3CCCC3)cc2)nc1Nc1cccc(S(=O)(=O)NC(C)(C)C)c1` [TG101348], in the data set on MV4-11 AML cells, the IC50 is 79 nM. Also, the “downregulation of c-Myc” value in the data set with c-Myc is given as “strong downregulation”.

The values are drawn from patent US12187686B2, “BRD4-JAK2 inhibitors” (H. LEE MOFFITT CANCER CENTER AND RESEARCH INSTITUTE, INC., priority 2018, dated 2025).
